In EP3925949A1, “AZIDO COMPOUNDS AND METHOD FOR MONITORING ACID CERAMIDASE ACTIVITY IN INTACT CELLS USING THEM” (Consejo Superior de Investigaciones Científicas (CSIC), priority 2020, dated 2021):

What was measured:
Format in all cases: cell-based
acid ceramidase (AC) [1] = biological target: T1, acid ceramidase (AC) (Homo sapiens, UniProt Q13510); experiment: AC activity by flow cytometry with RBM5-177/CO-1 in intact cells; set-up: expressed in transfected cells; host or cells: A375/+Dox and FD/AC (overexpressing AC); A375/-Dox and A549 (endogenous AC); settings: A375/+Dox, 4 h, RBM5-177 as substrate, labelling with CO-1 (1 µM, 10 min)
T1 sequence (Q13510 143-395 limits assumed): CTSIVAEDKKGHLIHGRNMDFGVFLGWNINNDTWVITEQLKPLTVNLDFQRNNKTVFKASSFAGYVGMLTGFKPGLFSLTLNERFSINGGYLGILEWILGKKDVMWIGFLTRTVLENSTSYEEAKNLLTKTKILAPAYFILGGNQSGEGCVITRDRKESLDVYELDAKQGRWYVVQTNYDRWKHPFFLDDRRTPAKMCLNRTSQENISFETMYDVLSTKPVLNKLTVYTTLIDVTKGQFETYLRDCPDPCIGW
T1 sequence (Q13510 22-142 limits assumed): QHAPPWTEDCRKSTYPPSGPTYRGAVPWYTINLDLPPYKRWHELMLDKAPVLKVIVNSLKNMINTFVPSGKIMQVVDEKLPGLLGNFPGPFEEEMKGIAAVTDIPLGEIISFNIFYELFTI
Description: Cells were seeded at 1 × 10^5 cells/mL into 6 well plates (1 mL/well) and were allowed to adhere for 24 h. Medium was replaced with fresh medium containing Soclac (5 µM final concentration) and incubated for 1 h. After this time, the medium was replaced with RBM5-177, RBM5-019 or RBM2-37 (5 µM final concentration) +/- Soclac and incubated for 20 min. In the experiments with DM120, the compound, Soclac and RBM5-177 were incubated together for 4 h. After probes incubation, the medium was replaced with fresh medium containing CO-1 (1 µM final concentration), and cells were incubated for 10 min. Then cells were washed 3 times with DMEM for 5 min at 37 °C, and finally washed with 400 µL PBS and harvested with 400 µL Trypsin-EDTA and 600 µL of medium. Pellets were resuspended with 200 µL of PBS and stained cells were analyzed by using a Guava EasyCyte™ flow cytometer (Merck Millipore, Billerica, MA) measuring green fluorescence (488/525 nm). Data analysis was performed using the Multicycle AV program (Phoenix Flow Systems, San Diego, CA).

acid ceramidase (AC) [2] = biological target: T1, acid ceramidase (AC); experiment: AC activity in intact cells by UPLC-HRMS quantification of RBM5-019 and reacylated products; set-up: expressed in transfected cells; host or cells: A375/+Dox (overexpressing AC); settings: A375/+Dox, 4 h, decrease in RBM5-19 amounts by UPLC-HRMS
Description: Cells were seeded at 5 × 10^5 cells/mL into 6 well plates (1 mL/well) and were allowed to adhere for 24 h. Medium was replaced with fresh medium containing RBM5-177, RBM5-019 or RBM2-37 (5 μM final concentration). After 30 min, medium was removed; cells were washed with 400 μL PBS and harvested with 400 μL Trypsin-EDTA and 600 μL of medium. NC recombinant enzyme, lysates from A375-AC overexpressing cells, MEF5 or microsomes from HeLa T-Rex ACER1-TET-ON and HeLa T-Rex ACER2-TET-ON cells stably overexpress ACER1 orACER2 respectively were incubated with RBM5-177 or RBM5-019 (10 μM final concentration) for 3 h in the corresponding ceramidase activity buffer. Cell pellets were resuspended with 100 μL of H2O and mixed with 750 μL of methanol: chloroform, 2:1. Samples were heated at 48°C overnight and next day, 75 μL of 1 M KOH in methanol were added, followed by 2 h incubation at 37°C. Afterwards, the saponification was neutralised with 75 μL of 1 M acetic acid and solvent was removed using a […] (Thermo Scientific). Sphingolipid extracts, fortified with internal standards (N-dodecanoylsphingosine, N-dodecanoylglucosylsphingosine, N-dodecanoylsphingosylphosphorylcoline and C17-sphinganine 0.2 nmol each) were solubilised in 150 μL of methanol. Samples were then centrifuged at 9,300 g for 3 min and 130 μL of the supernatant were injected to a Waters Aquity UPLC system connected to a Waters LCT Premier Orthogonal Accelerated Time of Flight Mass Spectrometer (Waters,Milford, MA, USA) operated in positive electrospray ionisation mode. Full scan spectra from 50 to 1500 Da were acquired and individual spectra were summed to produce data points each 0.2 s. Mass accuracy and reproducibility were maintained by using an independent reference spray by the LockSpray interference. The analytical column was a 100 mm x2.1 mm i.d., 1.7 μm C8 Acquity UPLC BEH (Waters). The two mobile phases were phase A: methanol/water/formic acid (74/25/1 v/v/v); phase B: methanol/formic acid (99/1 v/v), both also contained 5 mM ammonium formate. […]

A375 cells = experiment: Cell viability (MTT method); settings: A375/+Dox, 4 h, whole range of concentrations examined
Description: A375 cells were seeded at 2.5 × 10^4 cells/mL in 96-well plates (0.1 ml/well) and grown for 24 h. Overexpression of AC was induced with doxycycline at 1 µg/mL for 24 h. Cell viability was examined in triplicate samples by MTT method after treatment with DM120 at different concentrations or with the corresponding percentage of vehicle for 4 h.

acid ceramidase (AC) [3] = biological target: T1, acid ceramidase (AC); experiment: Fluorogenic AC activity in intact cells (substrate RBM14C12); set-up: expressed in transfected cells; host or cells: A375/+Dox (overexpressing AC); settings: AC overexpressing A375 cells (A375/+Dox), 4 h, substrate RBM14C12 40 µM
Description: To determine AC activity in intact cells, A375 cells were seeded at 2.5 × 10^4 cells/mL in 96-well plates (0.1 ml/well) and grown for 24 h. Overexpression of AC was induced with doxycycline at 1 µg/mL for 24 h. Medium was replaced by DM120 at different concentrations and substrate RBM14C12 at a final concentration of 40 µM in DMEM. The plate was incubated for 4 h at 37°C in 5% CO2. The reaction was stopped with 25 µL of MeOH and then 100 µL of NalO4 (2.5 mg/mL in glycine-NaOH buffer, pH 10.6) was added. After incubation at 37°C for 1 h, 100 µL of 0.1 M glycine-NaOH buffer (pH 10.6) was added and fluorescence was measured spectrophotometrically at excitation and emission wavelengths of 355 and 460 nm, respectively. The same reaction mixture without cells was used as blank.

CerS = CerS activity-dependence of labelling with RBM5-177 (confocal microscopy and UPLC-HRMS); settings: A375/+Dox cells, FB1 100 µM, 24 h
Description: Cells were seeded at 5 × 10^5 cells/mL into 6 well plates (1 mL/well) and were allowed to adhere for 24 h. Medium was replaced with fresh medium containing RBM5-177, RBM5-019 or RBM2-37 (5 µM final concentration). After 30 min, medium was removed; cells were washed with 400 µL PBS and harvested with 400 µL Trypsin-EDTA and 600 µL of medium. NC recombinant enzyme, lysates from A375-AC overexpressing cells, MEF5 or microsomes from HeLa T-Rex ACER1-TET-ON and HeLa T-Rex ACER2-TET-ON cells stably overexpress ACER1 orACER2 respectively were incubated with RBM5-177 or RBM5-019 (10 µM final concentration) for 3 h in the corresponding ceramidase activity buffer. Cell pellets were resuspended with 100 µL of H2O and mixed with 750 µL of methanol: chloroform, 2:1. Samples were heated at 48°C overnight and next day, 75 µL of 1 M KOH in methanol were added, followed by 2 h incubation at 37°C. Afterwards, the saponification was neutralised with 75 µL of 1 M acetic acid and solvent was removed using a Speed Vac Savant SPD131 DDA (Thermo Scientific). […]
Cells were seeded at 1 × 10^5 cells/mL on glass-bottom plates and allowed to adhere for 24 h. […] Co-localization coefficients were measured using the JaCoP plugin (S. Bolte et al. J. Microsc. 2006, 224, 213-232) on the different stacks of images (at least n=4) with each stack containing 3-10 cells.

acid ceramidase (AC) [4] = biological target: T1, acid ceramidase (AC); experiment: AC activity-dependence of labelling (fluorescence confocal microscopy); set-up: expressed in transfected cells; host or cells: FD/AC (overexpressing AC); settings: A375/+Dox and A375/-Dox, with or without SOCLAC (Fig. 7A)
Description: Cells were seeded at 1 × 10^5 cells/mL on glass-bottom plates and allowed to adhere for 24 h. For golgi staining, cells were incubated with 40 µL/well of CellLight Golgi-RFP BacMam 2.0 for 24 h. […] After this time, the medium was replaced with fresh medium containing CO-1 (1 µM final concentration), and cells were incubated for 10 min. Then cells were washed 3 times with DMEM for 5 min at 37 °C, 75 nM LysoTracker Red DND-99 or 75 nM Mitotracker in phenol red-free DMEM was added to stain lysosomes or mitochondria, and cells were kept in the incubator for microscope analysis. Staining was viewed with a Zeiss LSM 880 confocal microscope or Leica TCS SP8-Hyvolution. Image analysis was performed using Fiji software.^[7] To measure the Manders's and Pearson's coefficients a threshold including organelles and discarding the background was set. Co-localization coefficients were measured using the JaCoP plugin (S. Bolte et al. J. Microsc. 2006, 224, 213-232) on the different stacks of images (at least n=4) with each stack containing 3-10 cells.

CCCCCCCCCCCCC/C=C/[C@H](CO)NC(=O)C(C)(C)C [DM120]
IC50 (acid ceramidase (AC) [1]): 27 µM
IC50 (acid ceramidase (AC) [2]): 18 µM
toxicity (A375 cells): without toxicity in the whole range of concentrations examined
IC50 (acid ceramidase (AC) [3]): 9.4 µM

CCCC[C@@H](C)[C@@H](OC(=O)C[C@@H](CC(=O)O)C(=O)O)[C@H](C[C@@H](C)C[C@H](O)CCCC[C@@H](O)C[C@H](O)[C@H](C)N)OC(=O)C[C@@H](CC(=O)O)C(=O)O [FB1, Fumonisin B1]
effect on transacylation (N-acylderivatives) (CerS; UPLC-HRMS (Fig. 4B)): transacylation was blocked
effect on extralysosomal staining (CerS; confocal microscopy (Fig. 4A)): prevented

C[C@H](N)[C@H](O)CCCCCCCCCCCCN=[N+]=[N-] [RBM5-019, (2S,3R)-2-Amino-15-azidopentadecan-3-ol]
sensitivity of lysosome labelling to AC activity (acid ceramidase (AC) [4]): not sensitive to AC overexpression or blockade
